Laboratory results published in US12358908B2, “Crystals, preparation method and application of a muscarinic receptor antagonist” (BEIJING SHOWBY PHARMACEUTICAL CO., LTD., priority 2020, dated 2025).

How the values were obtained:
M3 receptor = M3 receptor (Homo sapiens, UniProt P20309); settings: selective effect on M receptor subtypes; cited from earlier work
M2 receptor = target: T1, M2 receptor (Homo sapiens, UniProt P08172); settings: selective effect on M receptor subtypes; cited from earlier work
T1 sequence (P08172 1-466): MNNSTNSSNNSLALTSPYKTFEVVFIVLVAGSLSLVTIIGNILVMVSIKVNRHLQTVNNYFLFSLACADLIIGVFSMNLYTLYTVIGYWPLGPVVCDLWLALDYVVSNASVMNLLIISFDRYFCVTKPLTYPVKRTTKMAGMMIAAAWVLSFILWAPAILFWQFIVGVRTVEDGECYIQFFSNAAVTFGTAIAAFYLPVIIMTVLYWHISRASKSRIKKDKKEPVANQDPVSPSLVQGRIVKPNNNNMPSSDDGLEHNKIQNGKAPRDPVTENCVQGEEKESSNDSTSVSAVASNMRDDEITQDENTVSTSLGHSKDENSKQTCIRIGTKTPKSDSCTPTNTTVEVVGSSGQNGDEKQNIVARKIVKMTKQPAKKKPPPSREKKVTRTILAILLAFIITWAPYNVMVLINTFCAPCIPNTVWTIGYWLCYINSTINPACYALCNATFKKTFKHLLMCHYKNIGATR

[1] = Stability test in 40° C./75% RH chamber with XRPD detection; assay type: physicochemical; settings: bottle sealed with filter paper, after 3 days
Protocol: The solid samples obtained were analyzed with an X-ray powder diffraction analyzer (Bruker D8 advance) equipped with a LynxEye detector. The samples was scanned with a 20 scanning angle from 3° to 40°, a scanning step of 0.02°, a tube voltage of 40 KV and a tube current of 40 mA. The sample pan used for sample measurement is a zero background sample pan.
The bottle was sealed with filter paper, and put into a 40° C./75% RH chamber for stability test. After 3 days, the sample was taken out for XRPD detection.
About 10 mg of Crystal B was weighed in an 8 mL sample bottle. The bottle was sealed with filter paper, and put into a 40° C./75% RH chamber for stability test. After 3 days, the sample was taken out for XRPD detection.

[2] = Dynamic vapor sorption (DVS); assay type: physicochemical; settings: at RH 80% humidity
Protocol: The dynamic vapor sorption and desorption analysis was performed on the IGA SORP (Hidenlsochema) instrument. The samples were tested in gradient mode. The test was performed in a humidity range of 0% to 90%, with an incremental humidity between each gradient of 10%. For each gradient, the shortest test time was 30 min, and the longest test time was 120 min. There is a time interval of 3 min for collecting data in the system.

Chain of M3 receptor (P20309 whole entry): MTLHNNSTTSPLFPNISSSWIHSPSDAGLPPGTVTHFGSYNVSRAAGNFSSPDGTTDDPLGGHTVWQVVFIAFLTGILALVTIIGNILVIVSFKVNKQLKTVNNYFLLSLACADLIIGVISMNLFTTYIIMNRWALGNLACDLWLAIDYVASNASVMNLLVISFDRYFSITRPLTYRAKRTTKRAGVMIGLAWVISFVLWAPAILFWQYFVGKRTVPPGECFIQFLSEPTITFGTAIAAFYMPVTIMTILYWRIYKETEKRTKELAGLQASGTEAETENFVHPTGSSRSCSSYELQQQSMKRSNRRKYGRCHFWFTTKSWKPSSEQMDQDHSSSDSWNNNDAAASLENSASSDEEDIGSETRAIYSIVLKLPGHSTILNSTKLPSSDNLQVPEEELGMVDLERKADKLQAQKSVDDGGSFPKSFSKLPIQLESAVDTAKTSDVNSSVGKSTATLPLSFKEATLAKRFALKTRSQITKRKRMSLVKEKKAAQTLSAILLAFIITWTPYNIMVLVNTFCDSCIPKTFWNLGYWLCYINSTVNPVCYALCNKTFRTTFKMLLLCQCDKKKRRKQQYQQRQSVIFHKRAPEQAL

SMILES | effect on M3 receptor (M3 receptor) | effect on M2 receptor (M2 receptor) | crystal form change by XRPD detection after stability test [1] | hygroscopic weight increment [2] [%]
O[C@@](CO[C@H]1C[N+]2(CCCOc3ccccc3)CCC1CC2)(c1ccccc1)C1CCCC1.[Br-] [Compound I, (2R,3R)-3-[(2-cyclopentyl-2-hydroxy-2-phenyl)ethoxy]-1-(3-phenoxypropyl)-1-azabicyclo[2,2,2]octylonium bromide] | strong effect | weak effect | – | –
O[C@@](CO[C@H]1C[N+]2(CCCOc3ccccc3)CCC1CC2)(c1ccccc1)C1CCCC1.[Br-] [Crystal B] | – | – | did not change | 2.58
